The source of these data is a melting point compilation (Tetko et al.).

One may read the melting point as the temperature of the solid-liquid transition.

Peptide text beside a SMILES is read from it.

The compound `O=Cc1cccc2c(Br)ccc([N+](=O)[O-])c12` returned a melting point of 135 °C.
In turn, `Nc1c2c(nc3ccccc13)CCCC2O` (stereo not drawn) showed a melting point of 245 °C.
Next, `COc1ccc2cc1Oc1ccc(cc1)CC1c3cc(c(OC)cc3CCN1C)Oc1c(OC)c(OC)cc3c1C(C2)N(C)CC3` (stereo not drawn): 218 °C.
Next, `CC(C)(C)OC(=O)N1CCN(c2ccc(C#N)cc2)CC1`: 124 to 125 °C.
To `BrC=Cc1ccccc1` belongs 7 °C.
As to `CN(C)CCCC1(c2ccc(F)cc2)OCc2cc(C#N)ccc21` (stereo not drawn), the melting point is 182 °C.
Consider `COc1ccc(Br)cc1C`, for which the melting point is 68 °C.
The compound `O=C(O)CS` gave a melting point of -11 °C.
To `Nc1ccc(O)cc1[N+](=O)[O-]` belongs 151 °C.
For `CCOC(=O)c1ccc(Cl)c([N+](=O)[O-])c1`, the melting point was 57 to 61 °C.
Next, `CC(C)OC(=O)Nc1cccc(Cl)c1`: 42 °C; `CCOC=C(C#N)S(=O)(=O)c1ccc2ccccc2c1`: 90 to 92.5 °C; `Nc1ccc(-c2ccccc2)cn1`: 135 °C.
To `NC(=O)NN=CC(=O)c1cc(C(=O)C=NNC(N)=O)cc(C(=O)C=NNC(N)=O)c1` belongs more than 300 °C.
The compound `CCOC(=O)C(C(=O)OCC)=C(C(=O)OCC)C(=O)OCC` registered a melting point of 58 °C.
`CCOc1ccc(N=C=S)cc1`: the melting point is 60 to 61 °C.
Next, `O=C(O)c1cccc(OC(F)(F)C(F)F)c1`: 127 to 128 °C.
Next, `C1=CCCC=CCC1`: -56.4 °C; `CCCCCCCCCC1CCCCC1`: -10 °C.
`O=C(O)C1CNC1`: the melting point lay in the range of 250 to 292 °C.
Next, `O=C(O)c1ccc(F)c(F)c1F`: 141 °C; `O=C(O)C=CC(=O)O`: 295 to 300 °C; `CC1=CCC(C(C)C)=CC1`: -10 °C.
Take `COc1ccc(C(=O)CCC(=O)O)cc1F`: the melting point is 171 °C.
To `O=C(CCl)NC1CC1` belongs 82 °C; to `Cc1cccc(NC(=O)C(C(F)(F)F)(C(F)(F)F)C(F)(F)F)c1`, 188 °C; to `CCOC(=O)Nc1ccc2c(c1)N(C(=O)CCN1CCOCC1)c1ccccc1S2`, 156 °C.
To `NC(=NO)c1ccc(C(F)(F)F)cc1` belongs 125 to 128 °C; to `CCCCCCC(=O)OCCCC`, -67.5 °C.
Next, `COc1cc(C=CC(=O)O)cc(OC)c1OC`: 127 °C; `C=C1C(C)CCC2(C)C3=C(C(=O)C4(CC4C)C(OC(C)=O)C3=O)C(OC(C)=O)C(OC(C)=O)C12` (stereo not drawn): 173 °C; `COc1ccc(C(N)=S)cc1`: 148 to 152 °C.
For `CC1C=C(CO)N=N1` (stereo not drawn), the melting point came to 79 °C.
As to `NCCCNC1CCCCC1`, the melting point was -18 °C.
To `CC(=NNC(N)=O)c1ccncc1` belongs 218 °C; to `Cc1cccc(-n2cc[nH]c2=S)c1`, 153 to 154 °C.
To `COc1cc2c(cc1C)C(Cl)C2` (stereo not drawn) belongs 41 °C.
Next, `Cc1[nH]c2ccccc2c1C#N`: 212 to 213 °C.
In turn, `Nc1cccc(C2OCCCO2)c1` gave a melting point of 75 to 76 °C.
Next, `CCCCNC(=O)c1ccc(Cl)cc1O`: 91.5 °C; `CC(=O)OC1CCC(C(C)(C)C)CC1` (stereo not drawn): -50 °C.
Next, `O=C(O)C1CC(=O)N(Cc2cccs2)C1` (stereo not drawn): 144 to 146 °C; `COC(=O)CCC(C)C1CCC2C3CCC4CC(=O)CCC4(C)C3CC(=O)C12C` (stereo not drawn): 129 to 130 °C; `Ic1cc(I)c(I)c(I)c1`: 148 °C.
To `COc1ccc(Cl)cc1C(=O)NCCc1ccc(S(=O)(=O)NC(=O)NC2CCCCC2)cc1` belongs 169 °C; to `O=C1C(=CC2C(=O)N(c3ccccc3)N=C2c2ccc([N+](=O)[O-])cc2)C(c2ccc([N+](=O)[O-])cc2)=NN1c1ccccc1` (stereo not drawn), 283 to 284 °C.
With `Cc1c(S(=O)(=O)Cl)sc2ccc(Cl)cc12`, the melting point is 153 °C.
To `Nc1ccccc1NC(C(=O)Nc1ccccc1)(c1ccccc1)c1ccccc1` belongs 160 °C.
Next, `O=S(=O)(F)Cc1ccccc1`: 93 °C; `CC(=O)NC(C(=O)O)c1ccccc1` (stereo not drawn): 197 to 201 °C; `O=C1C=C(NCc2cccnc2)C(=O)c2ccccc21`: 209 °C.
As to `O=S(=O)(O)c1ccc(Cl)cc1`, the melting point worked out at 102 °C.
Next, `COC(=O)C1CCCc2c1[nH]c1ccc(OC)cc21` (stereo not drawn): 92 °C; `CCCCCc1ccc(-c2nnc(S)[nH]2)cc1`: 190 to 193 °C.
Next, `O=C(O)c1cc(F)c(Cl)c([N+](=O)[O-])c1Cl`: 193 to 197 °C; `NC(=NO)c1ccc(F)cc1`: 92 to 95 °C; `COc1ccccc1C1CCNCC1`: 54 to 55 °C.
On to `OC1COC2C(O)COC12` (stereo not drawn), for which the melting point came to 88 °C.
As to `Cc1ccc(C(C)C)c(C)c1`, the melting point was -82 °C.
Next, `CCOc1cc(-c2nccc3cc(OC)c(OC)cc23)cc(OCC)c1OCC`: 98 to 103 °C.
To `O=C(NCC1CCCCN1)c1cc(OCC(F)(F)F)ccc1OCC(F)(F)F` (stereo not drawn) belongs 146 °C; to `Cc1cc[nH]c1`, -48.4 °C.
To `CCC12CCCN3CCc4c(n(c5ccccc45)C(=O)C1)C32` (single isomer, unassigned; (-)) belongs 173 to 177 °C.
`Cc1oncc1I`: the melting point lay in the range of 27 to 28 °C.
To `CC(C)=C1C(=O)NN(c2ccccc2)C1=O` belongs 166 °C; to `NNC(=O)c1ccc([N+](=O)[O-])cc1`, 210 to 214 °C.
Next, `ClCc1nc(-c2ccccc2)no1`: 42 °C; `NN=C(N)C(S)=NN`: 150 °C; `CC/C=C/CCO`: -61.5 °C.
With `Cc1cc2c(c(C)c1C)CC2=O`, the melting point is 86 °C.
To `CCOc1ccc(-c2nnc3n2NC(c2ccccc2)S3)cc1` (stereo not drawn) belongs 118 °C; to `CC1=C/C(=N/NC(N)=O)C(C(C)C)CC1` (stereo not drawn), 219 to 220 °C.
To `CCCCCCCCCCCCCBr` belongs 6.2 °C; to `O=C1NC(=O)C(Cc2cccc(CC3C(=O)NC(=O)NC3=O)c2)C(=O)N1`, 272 °C.
To `Cc1cc(C=O)c(O)c(C=O)c1` belongs 127 to 131 °C.
For `CC(=O)c1c(C)c(C(=O)O)n(C)c1C`, the melting point lay within 135 to 137 °C.
In turn, `C=CCN1CCCC1CNC(=O)c1cc(S(=O)(=O)NC)c(N)cc1OC` (stereo not drawn) gave a melting point of 169 °C.
Next, `OCCCCC#CC#CCCCCO`: 50 °C; `CCCCCCCCCCSCCCCCCCCCC`: 27 °C.
With `Oc1c(-c2ccc3ccccc3c2O)ccc2ccccc12`, the melting point is 300 °C.
To `CC(=O)Oc1ccc2c(c1)CCC1C2CCC2(C)C(=O)C(OC(C)=O)CC12` (stereo not drawn) belongs 180 °C.
Next, `CN1C(=O)CN=C(c2ccccc2F)c2cc(Cl)ccc21`: 296 °C; `CCC(=O)c1ccc(C(F)(F)F)cc1`: 36 to 37 °C.
To `O=C(C1=NOC2C(=O)N(c3ccccc3)C(=O)C12)c1ccccc1` (stereo not drawn) belongs 161 °C; to `CNNC`, -9 °C; to `COc1ccc(C2(C)CCc3oc4ccc(C)cc4c3-c3oc(C)cc32)cc1` (stereo not drawn), 170 °C.
`CC(C)(C)OC(=O)N1CCCC(=O)C1` came in with a melting point of 38 °C.
Compound `NN1CCN(CCO)CC1` registered a melting point of 102 to 107 °C.
Regarding `COC(=O)C1=C(C(=O)OC)Cc2cc3c(cc2C1)CC(C(=O)OC)=C(C(=O)OC)C3`, the melting point was 209 °C.
Next, `CCOC(=O)C=Cc1ccc(N=[N+]([O-])c2ccc(C=CC(=O)OCC)cc2)cc1`: 141 °C; `O=C(CBr)c1nccs1`: 54 to 55 °C.
In turn, `O=Cc1sc(Br)c2c1OCCO2` showed a melting point of 175 to 176 °C.
To `O=[N+]([O-])c1ccc(-c2csc(CCl)n2)cc1` belongs 154 to 158 °C; to `NCC(=O)NCC(=O)NCC(=O)NCC(=O)O` (H-GGGG-OH), 300 °C; to `Nc1c([N+](=O)[O-])sc2ccccc12`, 220 to 221 °C.
To `O=C1OC(=O)C2=C1SCCS2` belongs 213 to 214 °C; to `CC1(C)CCC(=O)CC1=O`, 103 to 105 °C.
For the compound `Cc1ccc(C2(C(=O)O)CCCC2)cc1`, the melting point fell in the range of 181 to 184 °C.
To `O=C(O)CCCOc1ccc(Cl)cc1Cl` belongs 118 °C; to `CC(C)(C)OC(=O)N1CCC(Oc2ccc([N+](=O)[O-])cc2)CC1`, 99 to 101 °C; to `CCOC(C)=C(C#N)C#N`, 89 to 93 °C.
The compound `Clc1ncc(Br)c(Cl)n1` showed a melting point of 30 °C.
Next, `O=Cc1ccccn1`: -21 °C; `CC1(C)SC2C(N)C(=O)N2C1C(=O)O` (stereo not drawn): 198 to 200 °C; `CCOC(=O)OC(=O)C1=CC(C)(C)N(O)C1(C)C`: 64 to 65 °C.
To `O=P(O)(O)C(Cl)(Cl)P(=O)(O)O` belongs 250 °C; to `CC(=O)c1ccc2[nH]c(=O)oc2c1`, 236 °C; to `COc1cc(Oc2ccc(Cl)cc2Cl)ccc1[N+](=O)[O-]`, 114 °C.
To `O=C1c2ccccc2C(=O)N1CBr` belongs 149 to 154 °C; to `OCc1ccc(-n2cccc2)cc1`, 102 to 105 °C; to `O=Cc1ccc(O)c(Br)c1`, 127 °C.
As to `CCS(=O)(=O)CCn1c([N+](=O)[O-])cnc1C`, the melting point was determined as 128 °C.
To `Nc1c(C(=O)Oc2ccccc2)sc2sc(C(=O)Oc3ccccc3)c(N)c12` belongs 165 °C.
